According to patent US5489693A, “Cyclic imino derivatives, pharmaceutical compositions containing these compounds and processes preparing them” (priority 1992, dated 1996):
pEC50, pIC50: −log10 of the molar value. Structures can show the parent of a compound that is named as a salt.

Tests used:
[1] = biological target: human thrombocytes; experiment: Inhibition of binding of ^3 H-BIBU 52 to human thrombocytes (Fibrinogen-binding test); details: ^3 H-BIBU 52 5 nM, human platelet-rich plasma 1:10 diluted, ambient temperature, 20 minutes
Description: 1. Inhibition of binding of ^3 H-BIBU 52 to human thrombocytes: […] Case 5/1093-FL) and various concentrations of the substance to be tested. The free and bound ligand is separated by centrifuging and quantitatively determined by scintillation counting. The inhibition of ^3 H-BIBU 52 binding by the test substance is determined from the measurements obtained. In order to do this, donor blood is taken from an anticubital vein and anticoagulated with trisodium citrate (final concentration 13 mM). The blood is centrifuged for 10 minutes at 170 x g and the supernatant platelet-rich plasma (PRP) is removed. The remaining blood is sharply centrifuged once more in order to obtain plasma. The PRP is diluted 1:10 with autologous plasma. 750 μl are incubated with 50 μl of physiological saline solution, 100 μl of test substance solution, 50 μl of ^14 C-sucrose (3,700 Bq) and 50 μl of ^3 H-BIBU 52 (final concentration: 5 nM) at ambient temperature for 20 minutes. In order to measure the non-specific binding, 5 μl of BIBU 52 (final concentration: 30 μM) are used instead of the test substance. The samples are centrifuged for 20 seconds at 10,000 x g and the supernatant is poured off. 100 μl thereof are measured in order to determine the free ligand. The pellet is dissolved in 500 μl of 0.2N NaOH, 450 μl are mixed with 2 ml of scintillator and 25 μl of 5N HCl and measured. The residual plasma remaining in the pellet is determined from the ^14 C-content and the bound ligand is determined from the ^3 H-measurement. After the non-specific binding has been deducted, the pellet activity is plotted against the concentration of the test substance and the concentration for a 50% inhibition of binding is determined.

[2] = test system: platelet aggregation; experiment: Antithrombotic activity: inhibition of collagen-induced platelet aggregation (Born and Cross method); assay type: cell-based; details: Homo sapiens, 10 min, platelet-rich plasma from healthy volunteers, 10 minutes incubation at 37° C.
Description: 2. Antithrombotic activity Method The thrombocyte aggregation is measured using the Born and Cross method (J. Physiol. 170:397 (1964)) in platelet-rich plasma taken from healthy volunteers. To inhibit coagulation the blood is mixed with 3.14% sodium citrate in a volume ratio of 1:10. Collagen-induced aggregation The pattern of the decrease in optical density of the platelet suspension is photometrically measured and recorded after the addition of the aggregation-triggering substance. The rate of aggregation is determined from the angle of inclination of the density curve. The point on the curve where there is maximum light transmittance is used to calculate the optical density. The amount of collagen used is as small as possible but sufficient to produce an irreversible reaction curve. Standard commercial collagen produced by Hormonchemie of Munich is used. Before the addition of the collagen the plasma is incubated for 10 minutes with the substance at 37° C. From the measurements obtained an EC50 is determined graphically, indicating a 50% change in the optical density in terms of the inhibition of aggregation. The Table which follows contains the results found: […]

[3] = test system: mice; experiment: Tolerability after intravenous administration to mice; assay type: in vivo; details: intravenous administration of 15 mg/kg, 3 animals

In the case of `COC(=O)CCc1ccc(C2=C(OC)CN(c3ccc(CN)cc3)C2=O)cc1` [5(B), 1-(4-Aminomethyl-phenyl)-4-methoxy-3-[4-(2-methoxycarbonyl-ethyl)-phenyl]-3-pyrrolin-2-one], the pIC50 [1] was 5.07 and the pEC50 [2] was 6.42.

In the case of `COC1=C(c2ccc(CCC(=O)O)cc2)C(=O)N(c2ccc(C(=N)N)cc2)C1` [Example 2, -(4-Amidinophenyl)-3-[4-(2-carboxyethyl)-phenyl]-4-methoxy-3-pyrrolin-2one-hydrochloride], the pIC50 [1] was 7.96, the pEC50 [2] was 7.40 and the deaths [3] was “none of the 3 animals tested died”.

Work on `N=C(N)c1ccc(N2CC(N3CCOCC3)=C(c3ccc(CCC(=O)O)cc3)C2=O)cc1` [2(3), 1-(4-amidinophenyl)-3-[4-(2-carboxy-ethyl)-phenyl]-4-morpholino-3-pyrrolin-2-one-hydrochloride] yielded a pIC50 [1] of 7.38 and a pEC50 [2] of 6.14.

With `N=C(N)c1ccc(N2CCC(c3ccc(CCC(=O)O)cc3)C2=O)cc1` (stereo not shown) [2(13), 1-(4-amidinophenyl)-3-[4-(2-carboxy-ethyl)-phenyl]-pyrrolidin-2-one-hydrochloride] the pIC50 [1] was 6.96 and the pEC50 [2] was 6.59.

In the case of `CC1(c2ccc(CCC(=O)O)cc2)C(=O)CN(c2ccc(C(=N)N)cc2)C1=O` (stereo not shown) [Example 13, 1-(4-Amidinophenyl)-3-[4-(2-carboxy-ethyl)-phenyl]-3-methyl-pyrrolidin-2,4-dione-hydrochloride], the pIC50 [1] was 6.44 and the pEC50 [2] was 6.30.

Work on `COC1=C(c2ccc(CCC(=O)O)cc2)C(=O)N(c2ccc(CN)cc2)C1` [2(55), 1-(4-aminomethyl-phenyl)-3-[4-(2-carboxy-ethyl)phenyl]-4-methoxy-3-pyrrolin-2-one-hydrochloride] yielded a pIC50 [1] of 6.74 and a pEC50 [2] of 6.48.
